Where “and” joins values, the source holds several entries; their conditions need not be identical. Equal values may be shown once.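 96-well plates; 48 h exposure; 5 concentrations. Endpoints by linear interpolation between flanking doses. Not reached: highest tested concentration assigned. GI50 is the concentration that inhibits growth by half. Definition used: TGI = concentration required for complete inhibition of growth.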
Tests used:
Assay in all cases: NCI anticancer screen, dose series, 48 h
[1] = tested on: A498 renal
[2] = tested on: COLO 205 colon
[3] = tested on: HCT-15 colon
[4] = tested on: HL-60(TB) leukemia
[5] = tested on: HS 578T breast
[6] = tested on: LOX IMVI melanoma
[7] = tested on: M14 melanoma
[8] = tested on: MCF7 breast
[9] = tested on: NCI-H23 lung
[10] = tested on: UACC-62 melanoma

Compound | GI50 [1] [µM] | TGI [1] [µM] | GI50 [2] | TGI [2] | GI50 [3] [µM] | TGI [3] [µM] | GI50 [4] [µM] | TGI [4] [µM] | GI50 [5] [µM] | TGI [5] [µM] | GI50 [6] [µM] | TGI [6] [µM] | GI50 [7] [µM] | TGI [7] [µM] | GI50 [8] | TGI [8] | GI50 [9] [µM] | TGI [9] [µM] | GI50 [10] [µM] | TGI [10] [µM]
Nc1ccccc1SC1CC(=O)N(c2ccc(Cl)c(Cl)c2)C1=O (stereo unspecified) | 4.88 | 37.2 | 53.1 µM | > 100 µM | 28.6 | > 100 | > 100 | > 100 | 12.5 | 49.5 | 31.7 | > 100 | 40.4 | > 100 | 27.1 µM | > 100 µM | 23.8 | > 100 | 14 | > 100
Cc1ccc(S(=O)(=O)NC(=O)NC2=NC(C)(C)N(c3ccc(Cl)c(Cl)c3)C(N)=N2)cc1 |  | > 100 |  | > 100 µM |  | > 100 |  | > 100 |  | > 100 |  |  |  | > 100 |  | > 100 µM |  | > 100 |  | > 100
O=[N+]([O-])c1ccc(CSCc2ccc(Cl)cc2)cc1 |  | > 100 |  | > 100 µM |  | > 100 |  | > 100 |  | > 100 |  | > 100 |  | > 100 |  | > 100 µM |  | > 100 |  | > 100
CC1=C(C(=O)Nc2ccccc2)C(c2ccc(C3C(C(=O)Nc4ccccc4)=C(C)NC(C)=C3C(=O)Nc3ccccc3)cc2)C(C(=O)Nc2ccccc2)=C(C)N1 |  | 24 |  | 10.6 µM |  | 9 |  | 7.21 |  | 16.2 |  | 3.24 |  | 6.46 |  | 14.7 µM |  | 8.65 |  | 4.09
CCOC(CN(C)C(=S)Nc1cccc2ccccc12)OCC |  | > 10 |  | > 10 µM |  | > 10 |  | > 10 |  | > 10 |  | > 10 |  | > 10 |  | > 10 µM |  | > 10 |  | > 10
CC/C=C/C/C=C/C/C=C/C/C=C/C/C=C/C/C=C/CCC(=O)Nc1ccn([C@@H]2O[C@H](CO)[C@@H](O)C2(F)F)c(=O)n1 | 0.0566 | 44.4 | 0.187 µM | 19.1 µM | 1.82 | 41.3 | 0.059 | 9.24 | 46.4 | > 76.9 | 0.0512 | 0.832 | 0.0303 | 0.212 |  | 17.2 µM | 0.019 | 9.3 | 0.0499 | 11.9
CCCCCCCCCCCCOC1C(C(CC(=O)NCCN2CCCC2)NS(=O)(=O)c2cc(Cl)cc(Cl)c2)OC2OC(C)(C)OC21 (stereo unspecified) | 2.4 | 4.79 | 2.06 µM and 1.19 µM | 4.4 µM and 2.66 µM | 1.71 | 3.18 | 1.64 | 3.76 | 2.23 | 4.16 | 1.9 | 3.5 | 1.71 | 3.45 | 1.98 µM and 1.73 µM | 3.91 µM and 3.51 µM | 2.21 | 4.76 | 1.85 | 3.3
C[C@H]1CCC/C=C/[C@@H]2C[C@H](O)C[C@H]2[C@H](O)[C@@H](SCC(O)CO)CC(=O)O1 (stereo partly specified) | 24.4 | 50.2 | 17.5 µM | 34.4 µM | 18.9 | 46.2 | 29.3 | 94.7 | 9.52 | > 100 |  |  | 12.4 | > 100 | 20.5 µM | 47.8 µM | 17.8 | 60.5 | 16.3 | 82.2

From PubChem BioAssay (NCI)
